# Measurements: US20070054262A1, “Methods of identifying optimal variants of peptide epitopes” (priority 2003, published 2007)
# Where two headings read alike, the source gives them in different places.
# What was measured:
# [1] = system: Env 134-specific T cell line; assay: Env 134-specific T cell line (stimulated five times with the immunizing peptide): recognition and titration of variant peptides; assay type: cell-based, mouse; details: Env 134 line; for Peptide concentration at which any IFN-γ secretion was detected: highest peptide concentration examined; for Enrichment of CTL able to recognize the peptide: one versus five stimulations; for Affinity reduced from the parent peptide: peptide titration
# [2] = system: Gag 271 variants; assay: Gag 271 variant immunogenicity tested using HLA-A2 transgenic mice; assay type: in vivo; details: 167 HIV variants
# From the text: This particular group of 21 epitopes was selected based on their identity conservation in Clade B HIV sequences, with conservation across HIV clades as a secondary consideration. Because of this criteria, the form of epitope chosen as the parent peptide was not the most common variant (e.g. Gag 386, Gag 271, Pol 98). In some cases (e.g., see Gag 386 data), the “parent” epitope and the most common variant were recognized to the same extent. However, in some cases the selection of epitope to include as the “parent” epitope was predicted to make a difference in the immunological conservation. An example of this was the Gag 271 epitope (FIG. 4). The variant most commonly seen in clade B sequences was the […] form, while the most common form of the epitope was […]. Not all amino acids are considered equal to each other in their ability to substitute (Tangri). For example, asparagine (N) is considered a conservative substitution for serine (S), while the opposite substitution in only considered semi-conserved. When the program calculated immunological conservation using the […] peptide as the parent peptide, only two variants were predicted to be immunogenic. […] This prediction was tested using HLA-A2 transgenic mice. […] This has important implications in epitope selection for vaccine development, and epitope performance can be predicted.
# [3] = system: Gag 386-specific T cell line; assay: Gag 386-specific T cell line (stimulated five times with the immunizing peptide): recognition and titration of variant peptides; assay type: cell-based, mouse; details: Gag 386 line; for Peptide affinity (titration against CTL stimulated 5 times with the parent peptide): IFN-γ
# From the text: Recognition after multiple restimulations The observed recognition of variant peptides by CTL raised against the parent peptide might be due to either promiscuous recognition at the level of a single TCR or simply a mixture of TCRs against the immunizing peptide which are each able to recognize subtly different peptides. To distinguish between these two possibilities, Env 134- or Gag 386-specific T cell lines were generated by stimulating five times with the immunizing peptide, and then tested for recognition of a partial panel of variant peptides. These T cell lines were also characterized for Vβ TCR usage against a panel of antibodies predicted to react with the TCR of the mouse strains utilized for these experiments.
# Because the SU is a measure of the number of cells needed to secrete a defined amount of IFN-γ, a higher SU value would correspond to an enrichment of IFN-γ, producing cells.
# Both lines were also characterized with regard to the affinity of certain of the variant peptides by titrating the variant peptides examined above (Table 5A and 5B).
# [4] = system: HLA-DR molecules; details: cited from earlier work
# [5] = system: normal human T cells; assay type: cell-based
# [6] = system: patients with recurrent or residual cervical carcinoma; details: co-emulsified with HPV-derived CTL epitopes, cited from earlier work
# [7] = system: CTL primed against the parent peptide; assay: Recognition of variant peptides by CTL from DNA-immunized HLA-A11/K^b transgenic mice (IFN-γ secretion after restimulation of splenocytes); assay type: cell-based; details: parent Pol 98
# From the text: Variants corresponding to five HLA-A2 and -A3 restricted epitopes from 167 HIV varianst were identified and synthesized. These represented all the complete sequences in the Los Alamos database at the time (116 strains), as well as 51 complete clade C sequences from Botswana, and included 22 subtype B and 62 subtype C sequences. These peptides were then characterized with regard to MHC binding, variant distribution, and immunogenicity. To measure immunogenicity, HLA-A2/K^b or HLA-A11/K^b transgenic mice were immunized with the epitopes encoded in a DNA based format ( ). Eleven days after immunization, splenocytes were restimulated with either the epitope corresponding to the epitope encoded by the DNA (parent) or each of the variant peptides. After 6 days in culture, IFN-γ secretion was measured in response to the peptide used to stimulate each culture.
substance,measurement,setting,value
QITPLCVTL [Env 134 variant],Activity as measured by SU after five restimulations,[1],lowest activity
same,Peptide concentration at which any IFN-γ secretion was detected,[1],1 µg/mL
same,Enrichment of CTL able to recognize the peptide,[1],little or no enrichment
KLTPLCVIL [Env 134 variant],Activity as measured by SU after five restimulations,[1],lowest activity
same,Peptide concentration at which any IFN-γ secretion was detected,[1],1 µg/mL
same,Enrichment of CTL able to recognize the peptide,[1],little or no enrichment
MTSNPPIPV,Variants that would be recognized if this form of the peptide was utilized in vaccines,[2],approximately 152 of 167 variants
ILAEAMSKA [Gag 386 variant],"Recognition of variant peptides (SU, IFN-γ), one versus five peptide stimulations",[3],never recognized
same,Peptide affinity (titration against CTL stimulated 5 times with the parent peptide),[3],not recognized
KLTPLCVPL [Env 134 variant],Activity as measured by SU after five restimulations,[1],lowest activity
same,Peptide concentration at which any IFN-γ secretion was detected,[1],1 µg/mL
same,Enrichment of CTL able to recognize the peptide,[1],little or no enrichment
VLAEAMSQI [Gag 386 single anchor variant],Peptide affinity (titration against CTL stimulated 5 times with the parent peptide),[3],highest affinity
KLTPFCVTL [Env 134 variant],Activity as measured by SU after five restimulations,[1],lowest activity
same,Peptide concentration at which any IFN-γ secretion was detected,[1],1 µg/mL
same,Enrichment of CTL able to recognize the peptide,[1],little or no enrichment
QYIKANSKFIGITE [TT 830-843],DR molecules bound,[4],seven
same,"Antigen concentration at which the 10,000 cpm proliferation level was reached",[5],"about 10,000 ng/ml"
same,Donors with primary T cell responses,[5],2
QLTPLCVTL [Env 134 variant],Affinity reduced from the parent peptide,[1],~100 fold
KITPLCVTL [Env 134 variant],Affinity reduced from the parent peptide,[1],approximately 10 fold
MTNNPPIPV,Variants that would be recognized if this form of the peptide was utilized in vaccines,[2],39 of 167 variants
"aKXVAAWTLKAAa-NH2 [PADRE®, a=D-alanine, X=cyclohexylalanine]",Safety,[6],favorable safety profile
same,Patients in whom PADRE T cell reactivity was detected,[6]; immunocompromised patients,four
same,"Potency relative to TT 830-843 antigen for activation of T cell responses, on a molar basis",[5],about 100 fold
same,Donors with primary T cell responses,[5]; three normal donors tested,three
VSIKVGGQIK,Recognition relative to the parent peptide,[7],≤ 10 fold
VLAEAMSQV [Gag 386],Peptide affinity (titration against CTL stimulated 5 times with the parent peptide),[3],highest affinity
ELTPLCVTL [Env 134 variant],Activity as measured by SU after five restimulations,[1],lowest activity
same,Peptide concentration at which any IFN-γ secretion was detected,[1],1 µg/mL
same,Enrichment of CTL able to recognize the peptide,[1],little or no enrichment
